Laboratory results from patent publication US10640535B2, “Identification of MHC class I phospho-peptide antigens from breast cancer utilizing SHLA technology and complementary enrichment strategies” (Agenus Inc., priority 2012, dated 2020).
Non-standard residues stand in square brackets, D forms with d. No end group written: not given here. pS = N[C@@H](COP(=O)(O)O)C(=O)O

System: phosphopeptide-specific CTL
Test: Recognition of naturally processed phosphopeptides on cancer cell lines by phosphopeptide-specific CTL (murine IFNγ ELISA)
Format: cell-based
Conditions: 24 hours with COV413.AAD.A4, DM331.AAD.A4, SLM2.AAD.A1, MCF7.AAD.A2, MDAMB231.AAD cancer lines and JY EBV-BLCL control
Method: FIG. 1, comprising FIGS. 1A and 1B, is a graphic illustration of the recognition of naturally processed and presented phosphorylated peptides on cancer cells by the phosphopeptide-specific CTL. Phosphopeptide-specific CTL were incubated with the following cancer cell lines or EBV-transformed B lymphoblastoid cell lines (BLCL): COV413.AAD.A4 ovarian carcinoma, DM331.AAD.A4 and SLM2.AAD.A1 melanomas, MCF7.AAD.A2 and MDAMB231.AAD breast carcinomas, and JY EBV-BLCL. Supernatants were harvested and evaluated for the presence of murine IFNγ (produced by murine CTL lines). […] The ordinate indicates murine IFNγ in pg/ml. The abscissa indicates each cell line.
CTL specific for two of the antigen peptides were generated by long term culture with the peptides. Two CTL lines specific for the antigen peptide GLLGpSPVRA, lines 6850 and 6960, SEQ ID NO: 13, and two CTL lines specific for the antigen peptide RVApSPTSGV, SEQ ID NO: 14, lines 5183 and 63 were used to detect these two antigen peptides on cancer cells. […] Supernatants were harvested 24 hours later and evaluated for the presence of murine IFN[…] (produced by murine CTL lines) by ELISA (eBioscience Ready-Set-go murine IFN[…] ELISA kit).

GLLGpSPVRA (GLLG[pS]PVRA; listed as Homo sapiens) [phosphopeptide from CDC25b:p63, HLA-A2.1]
recognition of the phosphopeptide on cell lines by phosphopeptide-specific CTL (murine IFNγ in supernatant) (CTL lines 6850 and 6960, FIG. 1A): recognize the phosphopeptide on all the cancer cell lines, but not the control cell line

RVApSPTSGV (RVA[pS]PTSGV; listed as Homo sapiens) [phosphopeptide from Insulin receptor substrate-2, HLA-A2.1]
recognition of the phosphopeptide on cell lines by phosphopeptide-specific CTL (murine IFNγ in supernatant) (CTL lines 5183 and 63, FIG. 1B): recognize the phosphopeptide on all the cancer cell lines, but not the control cell line
